T1: GRgp(Y118F) chimeric receptor (UniProt Q00560+Q99062, Y757F)
T1 construct: fusing the extracellular domain of the human G-CSFR to an EcoRI fragment of mouse gp130; an EcoRI fragment of mouse gp130 containing the transmembrane domain and the entire cytoplasmic region; expressed in transfected cells
T1 sequence (Q99062+Q00560 with tags, fused parts or gaps Q00560:Y757F): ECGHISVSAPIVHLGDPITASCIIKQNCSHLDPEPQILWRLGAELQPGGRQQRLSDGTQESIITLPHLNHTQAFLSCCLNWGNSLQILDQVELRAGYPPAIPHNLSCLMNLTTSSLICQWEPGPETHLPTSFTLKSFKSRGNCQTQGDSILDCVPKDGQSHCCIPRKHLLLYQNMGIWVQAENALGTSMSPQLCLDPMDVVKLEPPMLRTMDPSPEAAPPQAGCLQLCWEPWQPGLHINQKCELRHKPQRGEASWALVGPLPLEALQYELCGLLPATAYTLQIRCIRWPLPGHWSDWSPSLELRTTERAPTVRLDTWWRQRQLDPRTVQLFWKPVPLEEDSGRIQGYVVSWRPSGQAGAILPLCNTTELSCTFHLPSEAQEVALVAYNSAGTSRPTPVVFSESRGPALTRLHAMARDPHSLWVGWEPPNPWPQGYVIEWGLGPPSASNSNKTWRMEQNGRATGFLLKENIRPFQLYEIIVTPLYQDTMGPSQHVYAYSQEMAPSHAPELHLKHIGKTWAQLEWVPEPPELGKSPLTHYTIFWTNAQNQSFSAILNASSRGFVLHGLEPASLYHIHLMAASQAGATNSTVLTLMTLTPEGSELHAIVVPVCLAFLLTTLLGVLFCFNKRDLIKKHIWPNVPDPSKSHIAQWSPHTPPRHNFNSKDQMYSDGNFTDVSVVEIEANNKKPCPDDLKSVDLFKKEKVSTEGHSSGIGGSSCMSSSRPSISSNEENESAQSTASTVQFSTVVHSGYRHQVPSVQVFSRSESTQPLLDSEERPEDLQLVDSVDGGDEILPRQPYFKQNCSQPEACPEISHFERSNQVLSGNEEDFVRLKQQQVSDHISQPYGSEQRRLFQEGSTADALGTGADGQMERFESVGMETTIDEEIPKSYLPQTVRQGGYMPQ

B1: G-CSF: cytokine ligand used to stimulate chimaeric G-CSFR/gp130 receptors in ES cell transfectants (protein, UniProt P09919 31-207, looked up)
Granulocyte …: TPLGPASSLPQSFLLKCLEQVRKIQGDGAALQEKLVSECATYKLCHPEELVLLGHSLGIPWAPLSSCPSQALQLAGCLSQLHSGLFLYQGLLQALEGISPELGPTLDTLQLDVADFATTIWQQMEELGMAPALQPTQGAMPAFASAFQRRAGGVLVASHLQSFLEVSYRVLRHLAQP

Legend:
ERK1 and ERK2 = test: PD098059 dependent inhibition of ERK activation (immunoblot with phosphospecific anti-ERK antibodies); type: cell-based, mouse; conditions: GRgp(278) cells, 48 hours inhibitor plus LIF, then G-CSF 30 ng/ml 10 minutes
Description: For analysis of STAT3 and ERK phosphorylation, 1×10^6 ES cells were plated per well of 6-well dishes. Cells were serum starved and treated with cytokines as described above and then lysed in 100 μl SDS sample buffer. Ten microlitre aliquots were fractionated on a 10% SDS polyacrylamide gel, electroblotted onto nitrocellulose and probed with anti-ERK and anti-STAT3 antibodies according to the directions provided by supplier (New England Biolabs).
The continued proliferation of undifferentiated ES cells at inhibitory concentrations of PD098059 confirms that gp130-dependent activation of ERK1 and ERK2 is not required for the propagation of ES cells.

ZIN40 ES cells = test: Chimaera analysis of ES cell pluripotency; type: in vivo; conditions: 48 hours LIF plus 25 μM PD098059, 24 hours LIF only, injected into mouse blastocysts, day 9.5
Description: ZIN40 ES cells were treated wit 25 μM PD098059 plus 5 U/ml LIF for 48 hours, re-fed with medium containing LIF for a further 24 hours and than microinjected into C57BL/6 blastcysts. Embryos were collected at day 9.5 of pregnancy and stained for β-galactosidase activity.
ZIN40 ES cells were injected into C57BL/6 blastocysts and transferred into pseudopregnant mice. Mice were sacrificed at day 9.5 of pregnancy and the embryos were stained with X-gal.
We therefore determined whether ES cells propagated in the absence of gp130-dependent ERK. signaling have the capacity to incorporate into the developing embryo and differentiate appropriately. Cells were cultured at low density (1000 cell/cm^2) for 48 hours in the presence of LIF plus 25 μM PD098059, or in the absence of LIF. They were then re-fed with medium containing LIF but lacking the inhibitor for a further 24 hours before microinjection into mouse blastocysts. ZIN40 cells were used in this experiment, since they carry a nuclear localised β-galactosidase marker that is widely expressed in differentiated cell types. […] However, cells cultured in the absence of LIF for 48 hours were incapable of colonizing the embryo.

IOUD2 ES cells = test: Aggregate (embryoid body) culture, staining for Oct4 β-galactosidase; type: cell-based, mouse
Source text: Aggregation induces ES cells to differentiate and form structures known as embryoid bodies that contain multiple differentiated cell types. Undifferentiated cells are largely or wholly eliminated during embryoid formation due to induced differentiation and/or apoptosis.
IOUD2 ES cells, which carry a targeted integration of βgeo into the Oct4 locus were used to enable visualisation of undifferentiated cells by histochemical staining for β-galactosidase. Aggregates were formed in hanging drops by seeding 100 cells/20 μl drop in the presence of 0, 25, 50, 75 or 100 μm PD089059. Aggregates were maintained for 6 days, then transferred to gelatin-coated dishes and allowed to attach overnight. Cultures were then fixed and stained for β-galactosidase activity. In the absence of the Mek inhibitor, the embryoid bodies were well differentiated and very few Oct4 β-galactosidase expressing cells were present in the outgrowths. […] At PD089059 concentrations of 75-100 μm, the great majority of cells were undifferentiated.

[1] = target: T2, GRgp(278) chimeric receptor (UniProt Q00560+Q99062); test: Self-renewal response of GRgp130 transfectants to G-CSF; type: cell-based; conditions: GRgp(278) transfectants, 6 days, 300 fg-30 ng/ml G-CSF
T2 construct: fusing the extracellular domain of the human G-CSFR to an EcoRI fragment of mouse gp130; an EcoRI fragment of mouse gp130 containing the transmembrane domain and the entire cytoplasmic region; expressed in transfected cells
T2 sequence (Q00560 640-917 limits assumed, change not shown, one chain of several): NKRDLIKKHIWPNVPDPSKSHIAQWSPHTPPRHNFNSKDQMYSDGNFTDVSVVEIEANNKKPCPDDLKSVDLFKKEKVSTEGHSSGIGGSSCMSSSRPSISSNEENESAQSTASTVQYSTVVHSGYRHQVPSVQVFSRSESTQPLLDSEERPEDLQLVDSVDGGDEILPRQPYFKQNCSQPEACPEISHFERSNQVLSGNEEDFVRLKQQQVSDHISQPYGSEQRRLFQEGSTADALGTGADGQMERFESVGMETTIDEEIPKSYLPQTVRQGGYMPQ
Description: (§1) Photomicrographs were taken of X-gal stained, representive colonies formed by GRgp(278) and GRgp(Y118F) transfectants after 6 days culture with 300 fg, 30 pg and 30 ng/ml of G-CSF. Photomicrographs were also taken of representative colonies formed by GRgp(278) and GRgp(Y118F) transfectants after 6 days culture with no cytokine, IL-6 (100 ng/ml+sIL-6R), G-CSF(30 ng/ml) or, IL-6(100 ng/ml+sIL-6R) and G-CSF(30 ng/ml).
(§2) All assays were performed in triplicate.

[2] = target: T1, GRgp(Y118F) chimeric receptor; test: as above; type: cell-based; conditions: GRgp(Y118F) ES cells, 6 days, 300 fg-30 ng/ml G-CSF
Description: as §1, §2

Description for D027 ES cells: Data were collected as means±s.e.m for duplicate determinations of triplicate samples normalized relative to the response to LIF. […] Data was collected as means±s.e.m for duplicate determinations of triplicate samples normalized relative to the maximum response of cells to treatment with LIF(111 U/ml) plus vehicle.
Expression of β-galactosidase from the Oct-4 locus in D027 cells was quantitated in an ONPG assay. Cells were plated at 5000 per well in a 24-well dishes and cultured for 6 days in the presence or absence of cytokine. When cells were treated with PD098059, they were plated at 2500 per well and cultured overnight in normal growth medium prior to addition of the inhibitor. On day 6, cells were washed once with PBS and lysed in 0.4 ml of 0.25 M Tris pH 7.5, 0.5 mM DTT, 0.5 % NP40. Lysate (40 μl) was mixed with 100 μl of ONPG buffer (60 mM Na2HPO4, 40 mM NaH2PO4, 10 mM KCl, 1 mM MgCl2, 50 mM 2-mercaptoethanol, 1.2 mM ONPG) in a microtitre plate, incubated at 37° C. for 2-4 hours and the absorbance was read at 420 nm. All assays were performed in triplicate.
D027 cells have a LacZ gene inserted within the stem cell specific gene, Oct-4. As a consequence, expression of this integrated reporter gene is restricted to undifferentiated ES cells and the resulting β-galactosidase activity provides a measure of stem cell self-renewal.
To test this hypothesis, D027 cells were cultured in the presence of the specific MEK inhibitor, PD098059. A sub-saturating concentration of LIF (5 U/ml) was used in these experiments to increase these sensitivity of the assay to changes in self-renewal signaling.
Self-renewal ES cells was assayed flowing treatment with 0.1-100 U/ml LIF either in the presence of 25 μM PD098059 or vehicle (02% DMSO).

| G-CSF concentration at which self-renewal reaches a plateau [1] | G-CSF concentration at which maximal self-renewal response was achieved [2] | Molecule | concentration at which G-CSF dependent phosphorylation of ERK1 and ERK2 was effectively blocked (ERK1 and ERK2) | concentration range over which G-CSF dependent phosphorylation of ERK1 and ERK2 was progressively reduced (ERK1 and ERK2) | contribution of treated ES cells to chimaeras (β-galactosidase staining of mid-gestation embryos) (ZIN40 ES cells) | representation of undifferentiated β-galactosidase positive cells (IOUD2 ES cells; 0, 25, 50, 75 or 100 μm, aggregates 6 days, no inhibitor as control) | concentration at which the great majority of cells were undifferentiated (IOUD2 ES cells; aggregates maintained 6 days) | effect on dose response of ES cells to LIF (β-galactosidase activity) (D027 ES cells; 25 μM PD098059 versus vehicle, 0.1-100 U/ml LIF) | effect on ES cell self-renewal compared with vehicle alone (D027 ES cells; 3-25 μM PD098059, sub-saturating LIF (5 U/ml)) | effect on differentiation of ES cells in the absence of LIF (D027 ES cells; absence of LIF) | concentration at which maximum level of self-renewal is achieved (D027 ES cells; sub-saturating LIF (5 U/ml), dose dependent increase) |
| --- | --- | --- | --- | --- | --- | --- | --- | --- | --- | --- | --- |
|  |  | COc1cccc(-c2cc(=O)c3ccccc3o2)c1N [PD098059] | 25 µM | 3 to 12 µM | contributed to chimaeras | increased in a dose dependent fashion | 75 to 100 µM | increased the level of β-galactosidase activity at all concentrations of LIF | did not inhibit self-renewal | did not block the differentiation of ES cells | 12 to 25 µM |
| 3 to 30 ng/mL | 30 pg/mL | B1 |  |  |  |  |  |  |  |  |  |

— patent publication US6875608B1, “Propagation and/or derivation of embryonic stem cells” (University of Edinburgh, priority 1998, dated 2005)
